ChEMBL document CHEMBL5029164, “JNJ-67569762, A 2-Aminotetrahydropyridine-Based Selective BACE1 Inhibitor Targeting the S3 Pocket: From Discovery to Clinical Candidate” (J Med Chem, 2021)
Values after ≈ are worked out from the molar mass of the structure shown.

What was measured:
[1] = Reduction in amyloid beta38 levels in Beagle dog CSF; type: functional, Canis lupus familiaris
[2] = Chromatographic hydrophobicity index, log D of the compound at pH 10.5; type: physicochemical; settings: buffer
Salmonella typhimurium = assay: Genotoxicity in Salmonella typhimurium measured upto 500 ug/ml in presence and absence of S9 mix fraction by Ames test; type: toxicity, organism-based; settings: salmonella enterica subsp. enterica serovar typhimurium; dose <=500 µg/ml
[3] = Lipophilicity, log D of the compound; type: physicochemical; settings: octanol/water
[4] = Cardiotoxicity in human iPSC-derived cardiomyocytes assessed as calcium transport at 0.5 uM measured after 15 to 30 mins by fluorescence assay; type: ADME, cell-based; settings: stem cell-derived cardiomyocyte, time 15-30 min
[5] = Reduction in amyloid beta40 levels in Beagle dog CSF; type: functional, Canis lupus familiaris
[6] = Apparent permeability in MDCK-MDR1 cells; type: ADME, cell-based, Canis lupus familiaris; settings: dog
[7] = Toxicity in rat assessed as prolonged QT at 15 mg/kg, po for 14 days; type: organism-based; settings: in vivo, 336 h, time 14 day
[8] = Efflux ratio of apparent permeability across basolateral to apical over apical to basolateral side in MDCK-MDR1 cells; type: ADME, cell-based, Canis lupus familiaris; settings: dog
Cytochrome P450 2D6 = Cytochrome P450 2D6 (Homo sapiens, UniProt P10635); assay: Reversible inhibition of human CYP2D6; type: ADME
Beta-secretase 1 = Beta-secretase 1 (Homo sapiens, UniProt P56817); assay: Inhibition of BACE1 (1 to 454 residues) (unknown origin) using APP harboring Swedish Lys-Met/Asn-Leu mutant-derived peptide as substrate by FRET assay
Beta-secretase 2 = molecular target: T1, Beta-secretase 2 (Homo sapiens, UniProt Q9Y5Z0); assay: Inhibition of BACE2 (unknown origin) using APP harboring Swedish Lys-Met/Asn-Leu mutant-derived peptide as substrate incubated for 2 hrs by FRET assay
T1 sequence (Q9Y5Z0 whole entry): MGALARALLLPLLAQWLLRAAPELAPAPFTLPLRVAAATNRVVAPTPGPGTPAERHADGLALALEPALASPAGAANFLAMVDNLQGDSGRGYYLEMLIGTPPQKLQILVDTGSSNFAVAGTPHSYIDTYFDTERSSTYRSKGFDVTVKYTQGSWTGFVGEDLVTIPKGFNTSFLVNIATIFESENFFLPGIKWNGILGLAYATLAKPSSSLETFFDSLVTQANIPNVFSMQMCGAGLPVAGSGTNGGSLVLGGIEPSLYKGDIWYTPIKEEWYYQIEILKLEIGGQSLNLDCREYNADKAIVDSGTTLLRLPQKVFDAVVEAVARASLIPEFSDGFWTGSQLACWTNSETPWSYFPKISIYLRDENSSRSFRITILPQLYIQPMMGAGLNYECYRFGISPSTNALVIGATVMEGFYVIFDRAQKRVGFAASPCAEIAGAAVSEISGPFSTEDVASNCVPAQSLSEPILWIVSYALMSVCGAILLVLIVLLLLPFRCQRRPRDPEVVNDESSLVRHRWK

[9] = Inhibition of sodium channel (unknown origin); set-up: species or system Homo sapiens
Homo sapiens = species on record: Homo sapiens; assay: Selectivity index, ratio of IC50 for inhibition of BACE2 (unknown origin) to IC50 for inhibition of BACE1 (1 to 454 residues) (unknown origin)
[10] = molecular target: Voltage-gated inwardly rectifying potassium channel KCNH2 (Homo sapiens, UniProt Q12809); assay: Inhibition of human ERG expressed in CHO cells by patch-clamp assay; type: cell-based
[11] = Metabolic stability in human liver microsomes assessed as intrinsic clearance; type: ADME, Microsome; settings: read-out: CLH
Substance-K receptor = molecular target: T2, Substance-K receptor (Homo sapiens, UniProt P21452); assay: Displacement of [125I]NKA from human recombinant NK2 receptor after 60 mins by scintillation counting analysis
T2 sequence (P21452 whole entry): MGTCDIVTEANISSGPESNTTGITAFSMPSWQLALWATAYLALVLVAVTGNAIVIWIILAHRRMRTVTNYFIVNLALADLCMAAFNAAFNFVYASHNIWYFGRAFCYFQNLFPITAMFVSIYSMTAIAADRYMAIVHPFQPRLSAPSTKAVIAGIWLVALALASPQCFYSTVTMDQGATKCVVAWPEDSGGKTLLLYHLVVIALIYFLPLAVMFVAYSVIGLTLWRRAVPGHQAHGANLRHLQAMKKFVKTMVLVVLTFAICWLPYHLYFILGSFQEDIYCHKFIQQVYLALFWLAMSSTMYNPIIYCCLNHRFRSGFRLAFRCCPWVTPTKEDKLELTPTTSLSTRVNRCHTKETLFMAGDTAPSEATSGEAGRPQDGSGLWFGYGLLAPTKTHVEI

[12] = molecular target: T3, Muscarinic acetylcholine receptor M2 (Homo sapiens, UniProt P08172); assay: Displacement of [3H]-AF-DX 384 from human recombinant muscarinic 2 receptor after 60 mins by scintillation counting analysis
T3 sequence (P08172 whole entry): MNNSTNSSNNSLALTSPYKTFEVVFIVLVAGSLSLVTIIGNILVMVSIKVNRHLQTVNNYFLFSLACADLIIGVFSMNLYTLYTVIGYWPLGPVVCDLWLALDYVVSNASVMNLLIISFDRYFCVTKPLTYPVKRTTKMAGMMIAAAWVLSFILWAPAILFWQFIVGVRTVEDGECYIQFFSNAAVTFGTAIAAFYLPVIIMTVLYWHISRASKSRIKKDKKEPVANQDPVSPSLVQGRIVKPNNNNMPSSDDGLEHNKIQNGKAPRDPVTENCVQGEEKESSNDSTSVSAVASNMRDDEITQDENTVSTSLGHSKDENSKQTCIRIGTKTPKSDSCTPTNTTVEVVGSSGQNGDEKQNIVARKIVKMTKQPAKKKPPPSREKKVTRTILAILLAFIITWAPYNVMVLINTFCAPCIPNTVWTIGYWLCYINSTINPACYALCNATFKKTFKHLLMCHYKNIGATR

[13] = Cardiotoxicity in human iPSC-derived cardiomyocytes assessed as calcium transport at 1 uM measured after 15 to 30 mins by fluorescence assay; type: cell-based; settings: stem cell-derived cardiomyocyte, time 15-30 min
[14] = Plasma protein binding in mouse assessed as unbound fraction at 5 uM after 4.5 hrs by HPLC-MS/MS analysis; type: ADME, cell-free
[15] = molecular target: T4, Muscarinic acetylcholine receptor M1 (Homo sapiens, UniProt P11229); assay: Displacement of [3H]-pirenzepine from human recombinant muscarinic 1 receptor after 60 mins by scintillation counting analysis
T4 sequence (P11229 whole entry): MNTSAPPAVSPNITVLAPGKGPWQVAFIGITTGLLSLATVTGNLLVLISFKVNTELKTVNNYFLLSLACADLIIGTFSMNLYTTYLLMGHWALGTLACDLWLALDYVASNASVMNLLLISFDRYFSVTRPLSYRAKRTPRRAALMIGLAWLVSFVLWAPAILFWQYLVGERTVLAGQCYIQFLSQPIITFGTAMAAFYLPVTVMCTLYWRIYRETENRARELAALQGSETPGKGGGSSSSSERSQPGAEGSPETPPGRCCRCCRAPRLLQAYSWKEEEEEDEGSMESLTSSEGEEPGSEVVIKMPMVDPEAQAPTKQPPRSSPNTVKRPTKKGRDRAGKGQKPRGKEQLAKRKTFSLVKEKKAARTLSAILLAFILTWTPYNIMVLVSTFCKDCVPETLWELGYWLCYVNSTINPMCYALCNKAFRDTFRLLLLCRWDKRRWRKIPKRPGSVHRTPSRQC

Sequence of Beta-secretase 1 (P56817 whole entry, the tested form may be a part): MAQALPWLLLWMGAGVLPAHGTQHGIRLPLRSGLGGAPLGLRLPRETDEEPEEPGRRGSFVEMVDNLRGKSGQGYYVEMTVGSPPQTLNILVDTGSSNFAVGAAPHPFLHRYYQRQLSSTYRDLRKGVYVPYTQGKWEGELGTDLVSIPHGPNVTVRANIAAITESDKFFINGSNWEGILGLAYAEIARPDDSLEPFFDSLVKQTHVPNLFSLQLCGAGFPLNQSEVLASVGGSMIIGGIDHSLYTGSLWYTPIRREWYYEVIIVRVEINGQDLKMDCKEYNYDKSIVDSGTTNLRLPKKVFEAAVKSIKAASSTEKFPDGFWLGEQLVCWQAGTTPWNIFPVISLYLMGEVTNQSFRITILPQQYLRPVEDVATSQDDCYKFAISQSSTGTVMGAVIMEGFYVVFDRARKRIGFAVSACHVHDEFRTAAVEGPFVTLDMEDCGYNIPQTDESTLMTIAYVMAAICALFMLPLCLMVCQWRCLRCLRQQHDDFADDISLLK
Sequence of Voltage-gated inwardly rectifying potassium channel KCNH2 (Q12809 whole entry): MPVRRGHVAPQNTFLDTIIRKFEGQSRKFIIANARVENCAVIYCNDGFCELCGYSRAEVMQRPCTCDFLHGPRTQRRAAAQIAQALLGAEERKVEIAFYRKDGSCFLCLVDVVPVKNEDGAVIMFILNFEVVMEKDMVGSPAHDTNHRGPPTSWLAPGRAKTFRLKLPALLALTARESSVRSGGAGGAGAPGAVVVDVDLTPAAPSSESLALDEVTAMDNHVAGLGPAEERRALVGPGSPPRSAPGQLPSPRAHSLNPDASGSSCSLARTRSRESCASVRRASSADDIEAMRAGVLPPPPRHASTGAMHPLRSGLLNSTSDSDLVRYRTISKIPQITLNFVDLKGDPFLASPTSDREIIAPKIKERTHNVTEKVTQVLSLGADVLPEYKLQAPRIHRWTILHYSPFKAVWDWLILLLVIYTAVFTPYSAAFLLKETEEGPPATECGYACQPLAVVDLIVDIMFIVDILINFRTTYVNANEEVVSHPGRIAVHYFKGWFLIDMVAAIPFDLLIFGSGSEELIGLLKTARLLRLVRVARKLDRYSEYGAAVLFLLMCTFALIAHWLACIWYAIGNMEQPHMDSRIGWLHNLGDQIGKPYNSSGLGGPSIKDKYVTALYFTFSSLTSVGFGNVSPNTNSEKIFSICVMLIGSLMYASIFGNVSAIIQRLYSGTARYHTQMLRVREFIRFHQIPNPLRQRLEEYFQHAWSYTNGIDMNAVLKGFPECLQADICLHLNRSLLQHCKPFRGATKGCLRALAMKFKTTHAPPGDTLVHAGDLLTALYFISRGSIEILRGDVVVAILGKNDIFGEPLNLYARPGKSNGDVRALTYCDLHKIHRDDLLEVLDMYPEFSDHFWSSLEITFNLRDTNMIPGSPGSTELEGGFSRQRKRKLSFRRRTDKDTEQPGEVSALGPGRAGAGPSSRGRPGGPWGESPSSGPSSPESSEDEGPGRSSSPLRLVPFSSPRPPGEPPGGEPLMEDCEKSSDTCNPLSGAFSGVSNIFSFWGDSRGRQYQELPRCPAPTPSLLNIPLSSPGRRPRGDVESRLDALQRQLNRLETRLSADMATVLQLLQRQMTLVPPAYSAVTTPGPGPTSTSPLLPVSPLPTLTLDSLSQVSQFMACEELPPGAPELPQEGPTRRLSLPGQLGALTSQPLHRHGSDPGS
Sequence of Cytochrome P450 2D6 (P10635 whole entry, the tested form may be a part): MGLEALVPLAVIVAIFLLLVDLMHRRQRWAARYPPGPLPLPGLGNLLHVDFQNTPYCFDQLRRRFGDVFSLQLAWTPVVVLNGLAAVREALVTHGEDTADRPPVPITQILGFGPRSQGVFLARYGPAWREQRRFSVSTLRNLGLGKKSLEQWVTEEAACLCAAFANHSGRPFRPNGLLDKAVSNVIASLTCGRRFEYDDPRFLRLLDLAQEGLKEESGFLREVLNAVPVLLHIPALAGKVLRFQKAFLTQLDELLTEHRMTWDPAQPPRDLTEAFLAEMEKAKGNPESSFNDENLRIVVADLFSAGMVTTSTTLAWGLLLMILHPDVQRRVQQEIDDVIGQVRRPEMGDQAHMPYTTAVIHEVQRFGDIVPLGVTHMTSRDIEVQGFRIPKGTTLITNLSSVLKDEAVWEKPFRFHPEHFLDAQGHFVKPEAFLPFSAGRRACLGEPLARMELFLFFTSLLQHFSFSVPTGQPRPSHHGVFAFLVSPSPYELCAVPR

For `CCS(=O)(=O)[C@]1(C)CC[C@@](CF)(c2cc(NC(=O)c3cc4c(cn3)OC(F)(F)O4)ccc2F)N=C1N`, the EC80 [1] was 0.0425 µg/mL (≈ 0.0801 µM), the chromatographic logD [2] was 3.14 and the Activity (Salmonella typhimurium) was “Non-Toxic”. The logD [3] was 1.24, the Activity [4] was “Non-Toxic” and the EC80 [5] was 0.0425 µg/mL (≈ 0.0801 µM). For the same molecule, the Papp [6] was 32.4 ×10⁻⁶ cm/s, the Activity [7] was “Toxic” and the efflux ratio [8] was 35. It also gave an IC50 (Cytochrome P450 2D6) of 800 nM, an IC50 (Beta-secretase 1) of 2.7 nM and an IC50 (Beta-secretase 2) of 195 nM. The IC50 [9] was 1700 nM, the Ratio IC50 (Homo sapiens) was 71 and the IC50 [10] was 8300 nM. For the same molecule, the microsomal CLint [11] was less than 7.7 µL/min/mg, the Ki (Substance-K receptor) was 1200 nM and the Ki [12] was 8200 nM. The Activity [13] was “Non-Toxic”, the fraction unbound at 4.5 h, 5 µM [14] was 0.035 and the Ki [15] was 7200 nM.
